Results: US4434159A, “Pharmaceutical composition for intrarectal administration, and suppository prepared therefrom” (Teijin Limited, priority 1980, dated 1984)

Legend:
[1] = test system: mucous membrane of the eyes (cornea, iris, conjunctiva); test: Draize eye irritation test of absorption aids in rabbits
Protocol: Nothing was applied to the other eye. Thus, irritation of the absorption aid to the mucous membrane of the eyes were examined, and scores were calculated in accordance with the Draize's eye irritation evaluating method [Association of Foods, Drugs and Cosmetics" (1957)].

[2] = test system: serum calcium level; test: Effect of the amount of the absorption aid on the decrease of serum calcium level (calcitonin suppositories, rats); assay type: in vivo; conditions: intrarectal, SD male rats, one hour
Protocol: (§1) (a) About 14 g of each of the absorption aids shown in Table 1 was added to 186 g of cacao butter, and they were well mixed by a grinder. Salmon caltintonin or [Asu^1,7 ]-eel calcitonin was added gradually and mixed to form a homogeneous composition. The composition was slightly heated to make it flowable, and about 80 mg of it was cast into a suppository container made for rats, and allowed to solidify by cooling to obtain a rat suppository having a diameter of about 3 mm and a length of about 6 mm. The suppository contained 0.7 MRC units of calcitonin.
(§2) The suppository was administered to the rectum of each of […] male rats (body weight about 200 g) and the concentration of calcium in the serum was measured 1, 2, 3, and 5 hours later to examine the absorbabillity of calcitonin from the rectum. The calcium level in the serum was measured by using a calcium level measuring kit of Yatoron Co., and five rats were used for each blood withdrawal. The results are shown in Table 1 as the decrease (%) of the serum calcium level from that before administration of the calcitonin-containing suppository.
(b) Suppositories containing 0.7 MRC unit of [Aus^1.7 ]-eel calcitonin per 80 mg were prepared in the same way as in (a) above by including each of the absorption aids shown in Table 2 in the amounts indicated. Each of the suppositories was intrarectally administered to SD male rats in the same way as in (a) above, and the decrease (%) of the serum calcium level was measured one hour after the administration.

[3] = test system: serum calcium level; test: Decrease of the serum calcium level after administration of calcitonin suppositories to rats; assay type: in vivo; conditions: 0.7 u/kg intramuscularly administered
Protocol: as §1, §2
Furthermore, [Aus^1,7 ]-eel calcitonin was intramuscularly injected to rats, and the decrease in serum calcium level was also examined.

[4] = absorption aid 0.8% of suppository with 0.7 MRC unit [Aus^1.7]-eel calcitonin per 80 mg
[5] = absorption aid 2.4% of suppository with 0.7 MRC unit [Aus^1.7]-eel calcitonin per 80 mg
[6] = absorption aid 7.0% of suppository with 0.7 MRC unit [Aus^1.7]-eel calcitonin per 80 mg
[7] = 2.4 w/v % soln, 1 hours after application
[8] = 2.4 w/v % soln, 3 hours after application
[9] = 2.4 w/v % soln, 6 hours after application
[10] = 2.4 w/v % soln, 24 hours after application
[11] = 2.4 w/v % soln, 48 hours after application
[12] = 2.4 w/v % soln, 72 hours after application
[13] = 2.4 w/v % soln, 96 hours after application
[14] = 2.4 w/v % soln, 168 hours after application
[15] = aqueous solution applied dropwise to rabbit eye, Draize evaluation
[16] = absorption aid 15.0% of suppository with 0.7 MRC unit [Aus^1.7]-eel calcitonin per 80 mg
[17] = 0.1 w/v % soln, 1 hours after application
[18] = 0.1 w/v % soln, 3 hours after application
[19] = 0.1 w/v % soln, 6 hours after application
[20] = 0.1 w/v % soln, 24 hours after application
[21] = 0.1 w/v % soln, 48 hours after application
[22] = 0.1 w/v % soln, 72 hours after application
[23] = 0.1 w/v % soln, 96 hours after application
[24] = 0.1 w/v % soln, 168 hours after application

O=C1CCC(C(=O)O)N1 (racemic) [DL-Pyroglutamic acid]
Primary irritation scores on the eyes: Cornea ([1]; rabbit, in vivo): 0
Primary irritation scores on the eyes: Iris ([1]; rabbit, in vivo): 0
irritation to the mucous membrane of the eyes (in words) ([1]; rabbit, in vivo): almost no irritation
Decrease of the serum calcium level (%) [2, 4]: 15.2%
Decrease of the serum calcium level (%) [2, 5]: 20.1%
Decrease of the serum calcium level (%) [2, 6]: 31.0%

CC(=O)Oc1ccccc1C(=O)O [Acetylsalicylic acid, reference compound]
Primary irritation scores on the eyes: Cornea ([1]; rabbit, in vivo): 0
Primary irritation scores on the eyes: Iris ([1]; rabbit, in vivo): 0
irritation to the mucous membrane of the eyes (in words) ([1]; rabbit, in vivo): almost no irritation

O=C1O[C@H]([C@@H](O)CO)C(O)=C1O [Ascorbic acid]
Primary irritation scores on the eyes: Conjunctiva [1, 7]: 3.3
Primary irritation scores on the eyes: Cornea [1, 7]: 0
Primary irritation scores on the eyes: Iris [1, 7]: 0
Primary irritation scores on the eyes: Total [1, 7]: 3.3
Primary irritation scores on the eyes: Conjunctiva [1, 8]: 1.3
Primary irritation scores on the eyes: Cornea [1, 8]: 0
Primary irritation scores on the eyes: Iris [1, 8]: 0
Primary irritation scores on the eyes: Total [1, 8]: 1.3
Primary irritation scores on the eyes: Conjunctiva [1, 9]: 1.3
Primary irritation scores on the eyes: Cornea [1, 9]: 0
Primary irritation scores on the eyes: Iris [1, 9]: 0
Primary irritation scores on the eyes: Total [1, 9]: 1.3
Primary irritation scores on the eyes: Conjunctiva [1, 10]: 0
Primary irritation scores on the eyes: Cornea [1, 10]: 0
Primary irritation scores on the eyes: Iris [1, 10]: 0
Primary irritation scores on the eyes: Total [1, 10]: 0
Primary irritation scores on the eyes: Conjunctiva [1, 11]: 0
Primary irritation scores on the eyes: Cornea [1, 11]: 0
Primary irritation scores on the eyes: Iris [1, 11]: 0
Primary irritation scores on the eyes: Total [1, 11]: 0
Primary irritation scores on the eyes: Conjunctiva [1, 12]: 0
Primary irritation scores on the eyes: Cornea [1, 12]: 0
Primary irritation scores on the eyes: Iris [1, 12]: 0
Primary irritation scores on the eyes: Total [1, 12]: 0
Primary irritation scores on the eyes: Conjunctiva [1, 13]: 0
Primary irritation scores on the eyes: Cornea [1, 13]: 0
Primary irritation scores on the eyes: Iris [1, 13]: 0
Primary irritation scores on the eyes: Total [1, 13]: 0
Primary irritation scores on the eyes: Conjunctiva [1, 14]: 0
Primary irritation scores on the eyes: Cornea [1, 14]: 0
Primary irritation scores on the eyes: Iris [1, 14]: 0
Primary irritation scores on the eyes: Total [1, 14]: 0
irritation to the mucous membrane of the eyes (in words) [1, 15]: almost no irritation
Decrease of the serum calcium level (%) [2, 4]: 16.0%
Decrease of the serum calcium level (%) [2, 5]: 22.3%
Decrease of the serum calcium level (%) [2, 6]: 33.1%
Decrease of the serum calcium level (%) [2, 16]: 35.1%

N[C@@H](CCC(=O)O)C(=O)O [L-Glutamic acid]
Primary irritation scores on the eyes: Conjunctiva [1, 7]: 3.3
Primary irritation scores on the eyes: Cornea [1, 7]: 0
Primary irritation scores on the eyes: Iris [1, 7]: 0
Primary irritation scores on the eyes: Total [1, 7]: 3.3
Primary irritation scores on the eyes: Conjunctiva [1, 8]: 2.0
Primary irritation scores on the eyes: Cornea [1, 8]: 0
Primary irritation scores on the eyes: Iris [1, 8]: 0
Primary irritation scores on the eyes: Total [1, 8]: 2.0
Primary irritation scores on the eyes: Conjunctiva [1, 9]: 2.0
Primary irritation scores on the eyes: Cornea [1, 9]: 0
Primary irritation scores on the eyes: Iris [1, 9]: 0
Primary irritation scores on the eyes: Total [1, 9]: 2.0
Primary irritation scores on the eyes: Conjunctiva [1, 10]: 0
Primary irritation scores on the eyes: Cornea [1, 10]: 0
Primary irritation scores on the eyes: Iris [1, 10]: 0
Primary irritation scores on the eyes: Total [1, 10]: 0
Primary irritation scores on the eyes: Conjunctiva [1, 11]: 0
Primary irritation scores on the eyes: Cornea [1, 11]: 0
Primary irritation scores on the eyes: Iris [1, 11]: 0
Primary irritation scores on the eyes: Total [1, 11]: 0
Primary irritation scores on the eyes: Conjunctiva [1, 12]: 0
Primary irritation scores on the eyes: Cornea [1, 12]: 0
Primary irritation scores on the eyes: Iris [1, 12]: 0
Primary irritation scores on the eyes: Total [1, 12]: 0
Primary irritation scores on the eyes: Conjunctiva [1, 13]: 0
Primary irritation scores on the eyes: Cornea [1, 13]: 0
Primary irritation scores on the eyes: Iris [1, 13]: 0
Primary irritation scores on the eyes: Total [1, 13]: 0
Primary irritation scores on the eyes: Conjunctiva [1, 14]: 0
Primary irritation scores on the eyes: Cornea [1, 14]: 0
Primary irritation scores on the eyes: Iris [1, 14]: 0
Primary irritation scores on the eyes: Total [1, 14]: 0
irritation to the mucous membrane of the eyes (in words) [1, 15]: almost no irritation
Decrease of the serum calcium level (%) [2, 4]: 11.5%
Decrease of the serum calcium level (%) [2, 5]: 17.2%
Decrease of the serum calcium level (%) [2, 16]: 28.1%

CCCCCCCCCCCCOS(=O)(=O)[O-].[Na+] [Sodium Laurylsulfate, reference compound]
Primary irritation scores on the eyes: Conjunctiva [1, 17]: 4.0
Primary irritation scores on the eyes: Cornea [1, 17]: 0
Primary irritation scores on the eyes: Iris [1, 17]: 0
Primary irritation scores on the eyes: Total [1, 17]: 4.0
Primary irritation scores on the eyes: Conjunctiva [1, 18]: 4.0
Primary irritation scores on the eyes: Cornea [1, 18]: 0
Primary irritation scores on the eyes: Iris [1, 18]: 0
Primary irritation scores on the eyes: Total [1, 18]: 4.0
Primary irritation scores on the eyes: Conjunctiva [1, 19]: 0
Primary irritation scores on the eyes: Cornea [1, 19]: 0
Primary irritation scores on the eyes: Iris [1, 19]: 0
Primary irritation scores on the eyes: Total [1, 19]: 0
Primary irritation scores on the eyes: Conjunctiva [1, 20]: 0
Primary irritation scores on the eyes: Cornea [1, 20]: 0
Primary irritation scores on the eyes: Iris [1, 20]: 0
Primary irritation scores on the eyes: Total [1, 20]: 0
Primary irritation scores on the eyes: Conjunctiva [1, 21]: 0
Primary irritation scores on the eyes: Cornea [1, 21]: 0
Primary irritation scores on the eyes: Iris [1, 21]: 0
Primary irritation scores on the eyes: Total [1, 21]: 0
Primary irritation scores on the eyes: Conjunctiva [1, 22]: 0
Primary irritation scores on the eyes: Cornea [1, 22]: 0
Primary irritation scores on the eyes: Iris [1, 22]: 0
Primary irritation scores on the eyes: Total [1, 22]: 0
Primary irritation scores on the eyes: Conjunctiva [1, 23]: 0
Primary irritation scores on the eyes: Cornea [1, 23]: 0
Primary irritation scores on the eyes: Iris [1, 23]: 0
Primary irritation scores on the eyes: Total [1, 23]: 0
Primary irritation scores on the eyes: Conjunctiva [1, 24]: 0
Primary irritation scores on the eyes: Cornea [1, 24]: 0
Primary irritation scores on the eyes: Iris [1, 24]: 0
Primary irritation scores on the eyes: Total [1, 24]: 0
Primary irritation scores on the eyes: Conjunctiva [1, 7]: 13.3
Primary irritation scores on the eyes: Cornea [1, 7]: 0
Primary irritation scores on the eyes: Iris [1, 7]: 5.0
Primary irritation scores on the eyes: Total [1, 7]: 18.3
Primary irritation scores on the eyes: Conjunctiva [1, 8]: 12.7
Primary irritation scores on the eyes: Cornea [1, 8]: 0
Primary irritation scores on the eyes: Iris [1, 8]: 0
Primary irritation scores on the eyes: Total [1, 8]: 12.7
Primary irritation scores on the eyes: Conjunctiva [1, 9]: 11.3
Primary irritation scores on the eyes: Cornea [1, 9]: 0
Primary irritation scores on the eyes: Iris [1, 9]: 0
Primary irritation scores on the eyes: Total [1, 9]: 11.3
Primary irritation scores on the eyes: Conjunctiva [1, 10]: 8.0
Primary irritation scores on the eyes: Cornea [1, 10]: 0
Primary irritation scores on the eyes: Iris [1, 10]: 0
Primary irritation scores on the eyes: Total [1, 10]: 8.0
Primary irritation scores on the eyes: Conjunctiva [1, 11]: 4.0
Primary irritation scores on the eyes: Cornea [1, 11]: 0
Primary irritation scores on the eyes: Iris [1, 11]: 0
Primary irritation scores on the eyes: Total [1, 11]: 4.0
Primary irritation scores on the eyes: Conjunctiva [1, 12]: 2.7
Primary irritation scores on the eyes: Cornea [1, 12]: 0
Primary irritation scores on the eyes: Iris [1, 12]: 0
Primary irritation scores on the eyes: Total [1, 12]: 2.7
Primary irritation scores on the eyes: Conjunctiva [1, 13]: 2.0
Primary irritation scores on the eyes: Cornea [1, 13]: 0
Primary irritation scores on the eyes: Iris [1, 13]: 0
Primary irritation scores on the eyes: Total [1, 13]: 2.0
Primary irritation scores on the eyes: Conjunctiva [1, 14]: 0.7
Primary irritation scores on the eyes: Cornea [1, 14]: 0
Primary irritation scores on the eyes: Iris [1, 14]: 0
Primary irritation scores on the eyes: Total [1, 14]: 0.7
irritation to the mucous membrane of the eyes (in words) [1, 15]: fairly strong irritation

O=C([O-])c1ccccc1O.[Na+] [Sodium salicylate, reference compound]
Decrease of the serum calcium level (%) [2, 4]: 11.4%
Decrease of the serum calcium level (%) [2, 5]: 20.3%
Decrease of the serum calcium level (%) [2, 6]: 29.6%

[Asu^1,7 ]-eel calcitonin [[Asu^1.7]eel calcitonin]
Decrease (%) in serum calcium level from that before administration ([3]; after 1 hour): 26.0%
Decrease (%) in serum calcium level from that before administration ([3]; after 2 hours): 30.5%
Decrease (%) in serum calcium level from that before administration ([3]; after 3 hours): 17.5%
Decrease (%) in serum calcium level from that before administration ([3]; after 5 hours): 2.1%
